In one test the test system is dwf5-1 plants. Nature of the test: biochemical complementation of dwf5-1 plants with brassinolide and its biosynthetic intermediates (pedicel length). The test is classed as in vivo, Arabidopsis. Conditions: for dwf5 pedicel length compared to a water-treated control: exogenous application, pedicel length measured 7 days after application (n=15), FIG. 2. How it is done:
Standard procedures for plant growth, measurements on floral organs, scoring the number of seeds in a silique, biochemical complementation tests with Brassinosteroids, analysis of endogenous Brassinosteroids, and 13C-labeled mevalonic acid feeding experiments have been described previously (Choe, et al., 1999b). […] The ability of Brassinosteroids to rescue the phenotype of dwf5 was tested. The data presented in FIG. 2 show the biochemical complementation of dwf5-1 plants with brassinolide (BL) and its biosynthetic intermediates. […] The length of pedicels was measured 7 days after application (n=15). Data points represent the average with one standard deviation. Further, the BR biosynthetic intermediate 6-deoxocathasterone (6-DeoxoCT), and the synthetic compound 22-hydroxycampesterol (22-OHCR) induced pedicel growth up to 80% of wild-type length.

For the next test, the system named is dwf5-1 seeds. Nature of the test: seed germination on agar-solidified Murashige and Skoog media. The format is in vivo, Arabidopsis. The following applies: germination media supplemented with 10^−7 M brassinolide; without it <60% of dwf5-1 seeds germinated vs >90% of wild type. The text has this:
The reduced germination of dwf5 seeds may be a secondary effect of retarded growth, or possibly DWF5 is involved in seed development and/or germination.

The structures appear in SMILES notation.

Results on three compounds are retold here after US20020120111A1, “Dwf5 mutants” (priority 2000, published 2002).

For `CC(C)[C@H](C)C[C@H](O)[C@@H](C)[C@H]1CC[C@H]2[C@@H]3CC[C@H]4C[C@@H](O)CC[C@]4(C)[C@H]3CC[C@]12C` [6-deoxocathasterone], in the test on dwf5-1 plants, the “dwf5 pedicel length compared to a water-treated control” value is recorded as “significant increases”.
As to `CC(C)[C@H](C)C[C@H](O)[C@@H](C)[C@H]1CC[C@H]2[C@@H]3CC=C4C[C@@H](O)CC[C@]4(C)[C@H]3CC[C@]12C` [22-hydroxycampesterol], the “dwf5 pedicel length compared to a water-treated control” value in the test with dwf5-1 plants is on record as “significant increases”.
Regarding `CC(C)[C@H](C)[C@@H](O)[C@H](O)[C@@H](C)[C@H]1CC[C@H]2[C@@H]3COC(=O)[C@H]4C[C@H](O)[C@H](O)C[C@]4(C)[C@H]3CC[C@]12C` [brassinolide], the “correction of reduced germination of dwf5 seeds” value in the test with dwf5-1 seeds is recorded as “partially corrected”. Moreover, the “rescue of the length of dwf5 pedicels to that of wild type” value in the test on dwf5-1 plants (BL application) is recorded as “completely rescued”. Also, the “dwf5 pedicel length compared to a water-treated control” value in the test with dwf5-1 plants was “significant increases”.
